Data: patent publication US20080113926A1, “9A-Carbamoyl-Y-Aminopropyl- And 9A-Thiocabamoyl-Y-Aminopropyl-Azalides With Antimalarial Activity” (priority 2005, published 2008)
Converted amounts (≈) assume the structure as drawn.

How the values were obtained:
Format in all cases: cell-based
[1] = system: Plasmodium falciparum clone CDC/Sierra Leone I (D-6); assay: In vitro antimalarial [3H]-hypoxanthine incorporation serial dilution assay, D6; details: Plasmodium falciparum; P. falciparum D6, parasites exposed for 72 hours
Description: (§1) The in vitro screens for intrinsic antimalarial activity were based on modifications of the procedures described by Desjardins R E, Canfield C J, Haynes J D, Chulay J D. (Quantitative assessment of antimalarial activity in vitro by a semiautomated microdilution technique. Antimicrob Agents Chemother. 1979 December; 16(6):710-8), Chulay J D, Haynes J D, Diggs C L. (Plasmodium falciparum: Assessment of in vitro growth by [3H]hypoxanthine incorporation. Exp. Parasitol. 1983 55:138-146), and Milhous W K, Weatherly N F, Bowdre J H, Desjardins R E. (In vitro activities of and mechanisms of resistance to antifol antimalarial drugs. Antimicrob Agents Chemother. 1985 April; 27(4):525-30). The system was limited to the assessment of the intrinsic activity against the erythrocytic asexual life cycle (blood schizontocides). Two Plasmodium falciparum clones from CDC/Indochina III (W-2) and CDC/Sierra Leone I (D-6) (Oduola A M, Weatherly N F, Bowdre J H, Desjardins R E. Plasmodium falciparum: cloning by single-erythrocyte micromanipulation and heterogeneity in vitro. Exp Parasitol. 1988 66(1):86-95) were used for all assays. TM91C235, a multiple drug resistant isolate from Thailand, was used for the prescreening assay. W-2 is resistant to chloroquine, quinine, and pyrimethamine and susceptible to mefloquine. D-6 tends to be more resistant to mefloquine and susceptible to chloroquine, quinine, and pyrimethamine. All documents cited in this paragraph are incorporated by reference in their entirety.
(§2) All parasites were maintained in continuous long term cultures in RPMI-1640 medium supplemented with 6% washed human A positive (A+) (erythrocytes, 25 mM Hepes, […], and 10% heat inactivated A+ human plasma or ALBUMAX® (lipid-rich bovine serum albumin; Invitrogen, Carlsbad, Calif.). All cultures and assays were conducted at 37° C. under an atmosphere of 5% CO2 and 5% O2, with a balance of N2.
(§3) The prescreening assay uses TM91C235 diluted at a 0.4% parasitemia in a 1% hematocrit in folic acid free and p-aminobenzoic acid free media RPMI-1640 and ALBUMAX®. One mg of the compound is typically dissolved in 100 μl of dimethyl sulfoxide (DMSO). The compound is further diluted in culture medium (FF) with ALBUMAX® for the first initial starting concentration. The rest of the stock drug solution was kept at −70° C. The isolate was preexposed, in duplicate, at three concentrations (25,000 ng/ml, 2,500 ng/ml, and 25 ng/ml) of the test compound for 48 hr in a 96-well microtiter plate (MTP) using the BIOMEK® 2000 automated laboratory workstation. Each MTP contains chloroquine as control to assess the relative activity of the compound and to monitor the response of TM91C235.
(§4) After the preincubation, [^3H]-hypoxanthine was added to each well of the MTP. (The assay relies on the incorporation of radiolabeled hypoxanthine by the parasites, which indicates reproduction, and inhibition of isotope incorporation was attributed to activity of known or candidate antimalarial drugs). After 72 hr of total incubation time, the MTP were frozen to lyse the erythrocytes and parasites. The parasite DNA was recovered by harvesting the lysate onto glass-fiber filter plates using a Packard FilterMate™ Cell Harvester. The radioactivity was counted on a Packard TopCount™ microplate scintillation counter. The results were recorded as counts per minutes (CPM) per well at each drug concentration divided by the arithmetic mean of the CPM from the three untreated infection parasite control wells.
(§5) The serial dilution assay was conducted using the same assay conditions and stock solution of the compound used for the preliminary screen, described above. Both the D-6 and the W-2 clones were used. The compounds were diluted two-fold over 11 different concentration ranges with a starting concentration that was based on the preliminary screen. […]

[2] = system: Plasmodium falciparum TM91C235; assay: In vitro antimalarial [3H]-hypoxanthine incorporation serial dilution assay, TM91C235; details: Plasmodium falciparum; P. falciparum TM91C235, parasites exposed for 72 hours
[3] = system: Plasmodium falciparum clone CDC/Indochina III (W-2); assay: In vitro antimalarial [3H]-hypoxanthine incorporation serial dilution assay, W2; details: Plasmodium falciparum, W2, 72 h, P. falciparum W2, parasites exposed for 72 hours
Description: as §1, §2, §3, §4, §5

Row | Compound | IC50 [1] [µg/mL] | IC50 [2] [µg/mL] | IC50 [3] [µg/mL]
1 | CC[C@H]1OC(=O)[C@H](C)[C@@H](O[C@H]2C[C@@](C)(OC)[C@@H](O)[C@H](C)O2)[C@H](C)[C@@H](O[C@@H]2O[C@H](C)C[C@H](N(C)C)[C@H]2O)[C@](C)(O)C[C@@H](C)CN(CCCNC(=O)Nc2ccc3ccccc3c2)[C@H](C)[C@@H](O)[C@]1(C)O [Compound 1] | 0.145 (≈ 0.151 µM) | 0.0832 (≈ 0.0866 µM) | 0.141 (≈ 0.146 µM)
2 | CC[C@H]1OC(=O)[C@H](C)[C@@H](O[C@H]2C[C@@](C)(OC)[C@@H](O)[C@H](C)O2)[C@H](C)[C@@H](O[C@@H]2O[C@H](C)C[C@H](N(C)C)[C@H]2O)[C@](C)(O)C[C@@H](C)CN(CCCNC(=O)Nc2ccccc2C(F)(F)F)[C@H](C)[C@@H](O)[C@]1(C)O [Compound 2] | 0.311 (≈ 0.318 µM) | 0.23 (≈ 0.234 µM) | 0.36 (≈ 0.368 µM)
3 | CC[C@H]1OC(=O)[C@H](C)[C@@H](O[C@H]2C[C@@](C)(OC)[C@@H](O)[C@H](C)O2)[C@H](C)[C@@H](O[C@@H]2O[C@H](C)C[C@H](N(C)C)[C@H]2O)[C@](C)(O)C[C@@H](C)CN(CCCNC(=S)NCCCc2ccccc2)[C@H](C)[C@@H](O)[C@]1(C)O [Compound 3] | 0.176 (≈ 0.181 µM) | 0.117 (≈ 0.12 µM) | 0.112 (≈ 0.116 µM)
4 | CC[C@H]1OC(=O)[C@H](C)[C@@H](O[C@H]2C[C@@](C)(OC)[C@@H](O)[C@H](C)O2)[C@H](C)[C@@H](O[C@@H]2O[C@H](C)C[C@H](N(C)C)[C@H]2O)[C@](C)(O)C[C@@H](C)CN(CCCNC(=S)N(CCC#N)CCCc2ccccc2)[C@H](C)[C@@H](O)[C@]1(C)O [Compound 4] | 0.228 (≈ 0.223 µM) | 0.0541 (≈ 0.0529 µM) | 0.0768 (≈ 0.0751 µM)
5 | CC[C@H]1OC(=O)[C@H](C)[C@@H](O[C@H]2C[C@@](C)(OC)[C@@H](O)[C@H](C)O2)[C@H](C)[C@@H](O[C@@H]2O[C@H](C)C[C@H](N(C)C)[C@H]2O)[C@](C)(O)C[C@@H](C)CN(CCCN(CCC#N)C(=S)NCCc2ccccc2)[C@H](C)[C@@H](O)[C@]1(C)O [Compound 5] | 0.091 (≈ 0.0902 µM) | 0.0732 (≈ 0.0726 µM) | 0.169 (≈ 0.167 µM)
6 | CC[C@H]1OC(=O)[C@H](C)[C@@H](O[C@H]2C[C@@](C)(OC)[C@@H](O)[C@H](C)O2)[C@H](C)[C@@H](O[C@@H]2O[C@H](C)C[C@H](N(C)C)[C@H]2O)[C@](C)(O)C[C@@H](C)CN(CCCNC(=O)NC(C)c2cccc3ccccc23)[C@H](C)[C@@H](O)[C@]1(C)O (some centres unmarked) [Compound 6] | 0.292 (≈ 0.295 µM) | 0.118 (≈ 0.119 µM) | 0.246 (≈ 0.249 µM)
7 | CC[C@H]1OC(=O)[C@H](C)[C@@H](O[C@H]2C[C@@](C)(OC)[C@@H](O)[C@H](C)O2)[C@H](C)[C@@H](O[C@@H]2O[C@H](C)C[C@H](N(C)C)[C@H]2O)[C@](C)(O)C[C@@H](C)CN(CCCN(CCC#N)C(=O)Nc2ccc3ccccc3c2)[C@H](C)[C@@H](O)[C@]1(C)O [Compound 7] | 0.156 (≈ 0.154 µM) | 0.143 (≈ 0.141 µM) | 0.298 (≈ 0.294 µM)
8 | CC[C@H]1OC(=O)[C@H](C)[C@@H](O[C@H]2C[C@@](C)(O)[C@@H](O)[C@H](C)O2)[C@H](C)[C@@H](O[C@@H]2O[C@H](C)C[C@H](N(C)C)[C@H]2O)[C@](C)(O)C[C@@H](C)CN(CCCNC(=O)Nc2cccc3ccccc23)[C@H](C)[C@@H](O)[C@]1(C)O [Compound 8] | 0.268 (≈ 0.282 µM) | 0.143 (≈ 0.151 µM) | 0.176 (≈ 0.186 µM)
9 | CC[C@H]1OC(=O)[C@H](C)[C@@H](O[C@H]2C[C@@](C)(OC)[C@@H](O)[C@H](C)O2)[C@H](C)[C@@H](O[C@@H]2O[C@H](C)C[C@H](N(C)C)[C@H]2O)[C@](C)(O)C[C@@H](C)CN(CCCNC(=S)Nc2cccc3ccccc23)[C@H](C)[C@@H](O)[C@]1(C)O [Compound 9] | 0.144 (≈ 0.147 µM) | 0.159 (≈ 0.163 µM) | 0.17 (≈ 0.174 µM)
10 | CC[C@H]1OC(=O)[C@H](C)[C@@H](O[C@H]2C[C@@](C)(OC)[C@@H](O)[C@H](C)O2)[C@H](C)[C@@H](O[C@@H]2O[C@H](C)C[C@H](N(C)C)[C@H]2O)[C@](C)(O)C[C@@H](C)CN(CCCN(CCC#N)C(=O)NC(C)c2cccc3ccccc23)[C@H](C)[C@@H](O)[C@]1(C)O (some centres unmarked) [Compound 10] | 0.254 (≈ 0.244 µM) | 0.16 (≈ 0.153 µM) | 0.308 (≈ 0.296 µM)
11 | CC[C@H]1OC(=O)[C@H](C)[C@@H](O[C@H]2C[C@@](C)(OC)[C@@H](O)[C@H](C)O2)[C@H](C)[C@@H](O[C@@H]2O[C@H](C)C[C@H](N(C)C)[C@H]2O)[C@](C)(O)C[C@@H](C)CN(CCCN(CCC#N)C(=O)Nc2ccc(Cl)cc2Cl)[C@H](C)[C@@H](O)[C@]1(C)O [Compound 11] | 0.276 (≈ 0.267 µM) | 0.161 (≈ 0.156 µM) | 0.217 (≈ 0.21 µM)
12 | CC[C@H]1OC(=O)[C@H](C)[C@@H](O[C@H]2C[C@@](C)(OC)[C@@H](O)[C@H](C)O2)[C@H](C)[C@@H](O[C@@H]2O[C@H](C)C[C@H](N(C)C)[C@H]2O)[C@](C)(O)C[C@@H](C)CN(CCCN(CCC#N)C(=S)NCc2ccccc2)[C@H](C)[C@@H](O)[C@]1(C)O [Compound 12] | 0.233 (≈ 0.235 µM) | 0.163 (≈ 0.164 µM) | 0.2 (≈ 0.201 µM)
13 | CC[C@H]1OC(=O)[C@H](C)[C@@H](O[C@H]2C[C@@](C)(OC)[C@@H](O)[C@H](C)O2)[C@H](C)[C@@H](O[C@@H]2O[C@H](C)C[C@H](N(C)C)[C@H]2O)[C@](C)(O)C[C@@H](C)CN(CCCNC(=S)NCc2ccccc2)[C@H](C)[C@@H](O)[C@]1(C)O [Compound 13] | 0.291 (≈ 0.309 µM) | 0.189 (≈ 0.2 µM) | 0.18 (≈ 0.191 µM)
14 | CC[C@H]1OC(=O)[C@H](C)[C@@H](O[C@H]2C[C@@](C)(OC)[C@@H](O)[C@H](C)O2)[C@H](C)[C@@H](O[C@@H]2O[C@H](C)C[C@H](N(C)C)[C@H]2O)[C@](C)(O)C[C@@H](C)CN(CCCNC(=S)NCCc2ccccc2)[C@H](C)[C@@H](O)[C@]1(C)O [Compound 14] | 0.232 (≈ 0.242 µM) | 0.215 (≈ 0.225 µM) | 0.18 (≈ 0.188 µM)
15 | CC[C@H]1OC(=O)[C@H](C)[C@@H](O)[C@H](C)[C@@H](O[C@@H]2O[C@H](C)C[C@H](N(C)C)[C@H]2O)[C@](C)(O)C[C@@H](C)CN(CCCN(CCC#N)C(=S)NCCc2ccccc2)[C@H](C)[C@@H](O)[C@]1(C)O [Compound 31] | 0.192 (≈ 0.226 µM) | 0.157 (≈ 0.184 µM) | –
16 | CC[C@H]1OC(=O)[C@H](C)[C@@H](O)[C@H](C)[C@@H](O[C@@H]2O[C@H](C)C[C@H](N(C)C)[C@H]2O)[C@](C)(O)C[C@@H](C)CN(CCCN(CCC#N)C(=S)NCCCc2ccccc2)[C@H](C)[C@@H](O)[C@]1(C)O [Compound 32] | 0.155 (≈ 0.18 µM) | 0.106 (≈ 0.122 µM) | –
17 | CC[C@H]1OC(=O)[C@H](C)[C@@H](O)[C@H](C)[C@@H](O[C@@H]2O[C@H](C)C[C@H](N(C)C)[C@H]2O)[C@](C)(O)C[C@@H](C)CN(CCCN(CCC#N)C(=O)Nc2ccc(Cl)cc2Cl)[C@H](C)[C@@H](O)[C@]1(C)O [Compound 33] | 0.962 (≈ 1.1 µM) | 0.277 (≈ 0.316 µM) | –
18 | CC[C@H]1OC(=O)[C@H](C)[C@@H](O)[C@H](C)[C@@H](O[C@@H]2O[C@H](C)C[C@H](N(C)C)[C@H]2O)[C@](C)(O)C[C@@H](C)CN(CCCN(CCC#N)C(=O)Nc2ccc3ccccc3c2)[C@H](C)[C@@H](O)[C@]1(C)O [Compound 34] | 0.203 (≈ 0.237 µM) | 0.191 (≈ 0.223 µM) | –
